{"source": "paper PMC9975698", "about": "“Hyperoside alleviates toxicity of β-amyloid via endoplasmic reticulum-mitochondrial calcium signal transduction cascade in APP/PS1 double transgenic Alzheimer's disease mice” (Redox Biology, 2023)", "target": "T1, Aβ aggregate (Homo sapiens, UniProt P05067)", "T1 construct": "purchased DGpeptites, Hangzhou, CHINA", "T1 sequence (P05067 672-713 limits assumed)": "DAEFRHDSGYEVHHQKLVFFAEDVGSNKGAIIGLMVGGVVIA", "experiment": "LC/MS/MS Aβ binding propensity (reduction of HYP peak area in MRM)", "details": "HYP 20–80 μM with 30 μM Aβ aggregate vs HYP alone", "from_the_text": "Quercetin-3-O-β-D-galactopyranoside (Hyperoside, HYP), belongs to the class of flavonol glycosides and is derived from Crataegus pinnatifida Bunge Aβ is a well-known biomarker correlated to AD, therefore, the effect of HYP in targeting Aβ was investigated by molecular docking. […] HYP with Aβ molecular surface interaction and hydrogen bonding information were shown in supplementary 1A and 1B. […] The formation of Aβ aggregate and its particle size was verified by DLS (Fig. 1C). While the average particle size of the Aβ monomer is 365.62 nm, the particle size of Aβ aggregate is 1877 nm (Fig. 1D). The detection on the formation of Aβ aggregate was then performed by using the ThT fluorescence assay. ThT is a benzothiazole-like small molecule that specifically binds to amyloid fibrils. […] The direct binding affinity of HYP to Aβ aggregate was confirmed by the BLI assay. […] By using HYP alone (without Aβ aggregate incubation) as the control, all incubation mixtures were analyzed by using LC/MS/MS under the same chromatographic conditions according to our previous reported detection method. The quantitative reduction (%) in the peak area, representing the Aβ binding propensity of the tested compound [39] is used for statistical analysis."}
{"smiles": "O=c1c(O[C@@H]2O[C@H](CO)[C@H](O)[C@H](O)[C@H]2O)c(-c2ccc(O)c(O)c2)oc2cc(O)cc(O)c12", "note": "[HYP, Quercetin-3-O-β-D-galactopyranoside]", "values": [{"measurement": "decrease in the peak area of HYP in MRM (Aβ binding propensity)", "result": "dose-dependent binding affinity"}]}
